Experimental findings from patent publication US11407760B2, “Dioxinoquinoline compounds, preparation method and uses thereof” (BEIJING SCITECH-MQ PHARMACEUTICALS LIMITED, priority 2018, dated 2022) are described below.

The test relates to MHCC97H cells. The test is described as follows: Inhibitory activity on the proliferation of MHCC97H cells (CCK-8). Format: cell-based. The settings on record: Homo sapiens, MHCC97H cell proliferation, 72 hours of incubation. The protocol: Biological Example 3. Assay of the Inhibitory Activity of Small Molecular Compounds on the Proliferation of MHCC97H Cells
The specific steps of the assay are as follows:
1. Dilution of compounds: a total of 9 concentrations were obtained using a 3-fold gradient dilution from the highest concentration of 5000 nM (the maximum final concentration of the drug used in this assay was 5000 nM, and the minimum final concentration was 0.76 nM).
2. MHCC97H cells were collected, then transferred to a 15 mL centrifuge tube, and centrifuged at 1000 rpm for 5 minutes.
3. The supernatant was discarded, and the complete medium was added and pipetted evenly, 10 μL of cell suspension was taken out and mixed evenly with 10 μL of 0.4% trypan blue, the counting was carried out with a cell counter, and the number and survival rate of cells were recorded;
4. The cell suspension was seeded into a 96-well plate at 5000 cells/80 μL per well;
5. 20 μL of the corresponding 5× compound solution diluted with the medium mentioned above was added to each well and mixed evenly;
6. After 72 hours of incubation, 10 μL of CCK-8 reagent was added to each well and incubated for another 2 hours (the reaction time can be adjusted according to the color depth);
7. The OD value was read at 450 nm on a multi-function plate reader.
8. Data processing: cell survival rate (%)=[(As−Ab)/(Ac−Ab)]*100%
As: OD value of assay well (medium containing cells, CCK-8, compound),
Ac: OD value of control well (medium containing cells, CCK-8),
Ab: OD value of blank well (CCK-8, medium without cell and compound),
The values were then imported into Graphpad Prism5 software for curve fitting, and IC50 was calculated.
Table 3 lists the assay results of the inhibitory activity of some compounds disclosed herein on the proliferation of the MHCC97H cell line.

As usually defined, the IC50 is the concentration needed to halve the response being measured. Higher therefore signals lower potency.

SMILES strings stand for the structures.

`COc1cc2nccc(Oc3ccc(NC(=O)C4(C(=O)Nc5ccc(F)cc5)CC4)cc3)c2c2c1OCCO2` [Example 1, N-(4-fluorophenyl)-N-(4-((5-methoxy-2,3-dihydro-[1,4]dioxino[2,3-f]quinolin-10-yl)oxy)phenyl)cyclopropan-1,1-dicarboxamide] showed an IC50 of less than 50 nM. Under `COc1cc2nccc(Oc3ccc(NC(=O)C4(C(=O)Nc5ccc(F)cc5)CC4)cc3F)c2c2c1OCCO2` [Example 2, N-(3-fluoro-4-((5-methoxy-2,3-dihydro-[1,4]dioxino[2,3-f]quinolin-10-yl)oxy)phenyl)-N-(4-fluorophenyl)cyclopropan-1,1-dicarboxamide] stands less than 50 nM. For the compound `COc1cc2nccc(Oc3ccc(NC(=O)C4(C(=O)Nc5ccc(F)cc5)CC4)c(F)c3)c2c2c1OCCO2` [Example 3, N-(2-fluoro-4-((5-methoxy-2,3-dihydro-[1,4]dioxino[2,3-f]quinolin-10-yl)oxy)phenyl)-N-(4-fluorophenyl)cyclopropan-1,1-dicarboxamide], the IC50 is less than 50 nM. As to `O=C(Nc1ccc(F)cc1)C1(C(=O)Nc2ccc(Oc3ccnc4cc(OCCCN5CCOCC5)c5c(c34)OCCO5)cc2)CC1` [Example 4, N-(4-fluorophenyl)-N-(4-((5-(3-morpholinopropoxy)-2,3-dihydro-[1,4]dioxino[2,3-f]quinolin-10-yl)oxy)phenyl)cyclopropan-1,1-dicarboxamide], the IC50 is less than 50 nM. For `O=C(Nc1ccc(F)cc1)C1(C(=O)Nc2ccc(Oc3ccnc4cc(OCCCN5CCOCC5)c5c(c34)OCCO5)c(F)c2)CC1` [Example 5, N-(3-fluoro-4-((5-(3-morpholinopropoxy)-2,3-dihydro-[1,4]dioxino[2,3-f]quinolin-10-yl)oxy)phenyl)-N-(4-fluorophenyl)cyclopropan-1,1-dicarboxamide] the value was less than 50 nM.

`O=C(Nc1ccc(F)cc1)C1(C(=O)Nc2ccc(Oc3ccnc4cc(OCCCN5CCOCC5)c5c(c34)OCCO5)cc2F)CC1` [Example 6, N-(2-fluoro-4-((5-(3-morpholinopropoxy)-2,3-dihydro-[1,4]dioxino[2,3-f]quinolin-10-yl)oxy)phenyl)-N-(4-fluorophenyl)cyclopropan-1,1-dicarboxamide] had an IC50 of less than 50 nM.

For `CCOc1cc2nccc(Oc3ccc(NC(=O)C4(C(=O)Nc5ccc(F)cc5)CC4)cc3F)c2c2c1OCCO2` [Example 7, N-(4-((5-ethoxy-2,3-dihydro-[1,4]dioxino[2,3-f]quinolin-10-yl)oxy)-3-fluorophenyl)-N-(4-fluorophenyl)cyclopropan-1,1-dicarboxamide], the IC50 is less than 50 nM.

In turn, `CN(C)CCCOc1cc2nccc(Oc3ccc(NC(=O)C4(C(=O)Nc5ccc(F)cc5)CC4)cc3F)c2c2c1OCCO2` [Example 8, N-(4-((5-(3-(dimethylamino)propoxy)-2,3-dihydro-[1,4]dioxino[2,3-f]quinolin-10-yl)oxy)-3-fluorophenyl)-N-(4-fluorophenyl)cyclopropan-1,1-dicarboxamide] returned a concentration for half-maximal inhibition (IC50) of less than 50 nM.

The compound `O=C(Nc1ccc(F)cc1)C1(C(=O)Nc2ccc(Oc3ccnc4cc(OCCCN5CCCCC5)c5c(c34)OCCO5)c(F)c2)CC1` [Example 9, N-(4-((5-(3-(piperidin-1-yl)propoxy)-2,3-dihydro-[1,4]dioxino[2,3-f]quinolin-10-yl)oxy)-3-fluorophenyl)-N-(4-fluorophenyl)cyclopropan-1,1-dicarboxamide] gave a half-maximal inhibitory concentration (IC50) of less than 50 nM.

In the case of `COCCOc1cc2nccc(Oc3ccc(NC(=O)C4(C(=O)Nc5ccc(F)cc5)CC4)cc3F)c2c2c1OCCO2` [Example 10, N-(3-fluoro-4-((5-(2-methoxyethoxy)-2,3-dihydro-[1,4]dioxino[2,3-f]quinolin-10-yl)oxy)phenyl)-N-(4-fluorophenyl)cyclopropan-1,1-dicarboxamide], the concentration for half-maximal inhibition (IC50) is less than 50 nM. For `O=C(Nc1ccc(F)cc1)C1(C(=O)Nc2ccc(Oc3ccnc4cc(OCCCO)c5c(c34)OCCO5)c(F)c2)CC1` [Example 13, N-(3-fluoro-4-((5-(3-hydroxypropoxy)-2,3-dihydro-[1,4]dioxino[2,3-f]quinolin-10-yl)oxy)phenyl)-N-(4-fluorophenyl)cyclopropan-1,1-dicarboxamide] the value was less than 50 nM. The compound `COCCCOc1cc2nccc(Oc3ccc(NC(=O)C4(C(=O)Nc5ccc(F)cc5)CC4)cc3F)c2c2c1OCCO2` [Example 14, N-(3-fluoro-4-((5-(3-methoxypropoxy)-2,3-dihydro-[1,4]dioxino[2,3-f]quinolin-10-yl)oxy)phenyl)-N-(4-fluorophenyl)cyclopropan-1,1-dicarboxamide] showed an IC50 of less than 50 nM. For `COCCN(C)CCCOc1cc2nccc(Oc3ccc(NC(=O)C4(C(=O)Nc5ccc(F)cc5)CC4)cc3F)c2c2c1OCCO2` [Example 15, N-(3-fluoro-4-((5-(3-((2-methoxyethyl)(methyl)amino)propoxy)-2,3-dihydro-[1,4]dioxino [2,3-f]quinolin-10-yl)oxy)phenyl)-N-(4-fluorophenyl)cyclopropan-1,1-dicarboxamide] the value was less than 50 nM; for `O=C(Nc1ccc(F)cc1)C1(C(=O)Nc2ccc(Oc3ccnc4cc(OC5CCOC5)c5c(c34)OCCO5)c(F)c2)CC1` (stereo not drawn) [Example 17, N-(3-fluoro-4-((5-((tetrahydrofuran-3-yl)oxy)-2,3-dihydro-[1,4]dioxino[2,3-f]quinolin-10-yl)oxy)phenyl)-N-(4-fluorophenyl)cyclopropan-1,1-dicarboxamide], less than 50 nM. For `CN1CCN(CCCOc2cc3nccc(Oc4ccc(NC(=O)C5(C(=O)Nc6ccc(F)cc6)CC5)cc4F)c3c3c2OCCO3)CC1` [Example 21, N-(4-((5-(3-(4-methylpiperazin-1-yl)propoxy)-2,3-dihydro-[1,4]dioxino[2,3-f]quinolin-10-yl)oxy)-3-fluorophenyl)-N-(4-fluorophenyl)cyclopropan-1,1-dicarboxamide] the value was less than 50 nM. For `CC1(O)CCN(CCCOc2cc3nccc(Oc4ccc(NC(=O)C5(C(=O)Nc6ccc(F)cc6)CC5)cc4F)c3c3c2OCCO3)CC1` [Example 22, N-(3-fluoro-4-((5-(3-(4-hydroxy-4-methylpiperidin-1-yl)propoxy)-2,3-dihydro-[1,4]dioxino[2,3-f]quinolin-10-yl)oxy)phenyl)-N-(4-fluorophenyl)cyclopropan-1,1-dicarboxamide] the value was less than 50 nM; for `CN(CCCOc1cc2nccc(Oc3ccc(NC(=O)C4(C(=O)Nc5ccc(F)cc5)CC4)cc3F)c2c2c1OCCO2)C1CCC1` [Example 23, N-(4-((5-(3-(cyclobutyl(methyl)amino)propoxy)-2,3-dihydro-[1,4]dioxino[2,3-f]quinolin-10-yl)oxy)-3-fluorophenyl)-N-(4-fluorophenyl)cyclopropan-1,1-dicarboxamide], less than 50 nM. As for `O=C(Nc1ccc(F)cc1)C1(C(=O)Nc2ccc(Oc3ccnc4cc(OCCCN5CCS(=O)(=O)CC5)c5c(c34)OCCO5)c(F)c2)CC1` [Example 24, N-(4-((5-(3-(1,1-dioxothiomorpholin-4-yl)propoxy)-2,3-dihydro-[1,4]dioxino[2,3-f]quinolin-10-yl)oxy)-3-fluorophenyl)-N-(4-fluorophenyl)cyclopropan-1,1-dicarboxamide], the concentration for half-maximal inhibition (IC50) was less than 50 nM.
